According to paper PMC7445743 (Journal of Medicinal Chemistry, 2020):
Counter-ions that a name gives are not always drawn.

How the values were obtained:
[1] = system: kinase panel (468 Assays Tested); test: Pan-kinome selectivity, competitive binding assay (KINOMEscan); conditions: for S-Score(35): 1 μM
[2] = system: diet induced obesity mouse model; test: OGTT in DIO mice, acute dosing study; type: in vivo, male C57Bl/6J mice; conditions: single oral dose of 25 or 50 mg/kg 4 h prior to OGTT, vs vehicle
Description: Animals were allocated to dosing groups (6 mice per group) such that groups were balanced as closely as possible for mean body weight. The day prior to the OGTT, all animals were deprived of food (but not water) beginning approximately 16:45. The following morning, the mice were dosed with vehicle or either 10 mg/kg, 25 mg/kg, or 50 mg/kg 18 formulated in a vehicle of DMSO (10% final volume) and 20% (2-hydroxypropyl)-β-cyclodextrin (90% final volume) by the oral route (beginning at 08:45). Four hours after dosing, a blood sample was taken (B1), and 3 min later glucose was administered (2 g/kg orally). Further blood samples were taken 10, 30, 60, and 90 min after glucose administration. Between blood sampling, animals were returned to the home cage with free access to water (but not food). Blood samples (approximately 30 μL) were collected into lithium heparinized tubes (Sarstedt Microvette CB300LH), and plasma was separated by centrifugation to produce a single aliquot of plasma, which was frozen (approximately −80 °C) and subsequently assayed for glucose (in duplicate; Thermoelectron Infinity glucose reagent TR15498) and insulin (single replicate; Alpco mouse ultrasensitive insulin kit 80, INSMSU-E10).

[3] = system: diet induced obesity mouse model; test: OGTT in DIO mice, chronic (14 day) dosing study; type: in vivo, male C57Bl/6J mice; conditions: twice daily for 14 days (25 mg/kg)
Description: Upon completion of the OGTT, all animals were singly housed with food provided as above for 2 weeks prior to the onset of the baseline phase of the chronic study. Upon single housing after the OGTT, mice were placed on a reverse-phase light–dark cycle (lights off 09:30–17:30). Following this period, the animals underwent a 5-day baseline phase where they were dosed twice daily with vehicle at approximately 08:45 and 16:45 each day. Toward the end of the baseline phase mice were reallocated to dosing groups (8 animals per group) such that groups within the study were balanced as closely as possible for body weight, food and water intake, and previous treatment. From day 1 onward, mice were dosed orally twice daily with 25 mg/kg 18 formulated in a vehicle of DMSO (10% final volume) and 20% (2-hydroxypropyl)-β-cyclodextrin (90% final volume) on days 1–6 and 1% methyl cellulose at 5 mL/kg on subsequent days or twice daily orally with vehicle alone or subcutaneously with 0.1 mg/kg liraglutide (Bachem) formulated in pH 7.4 phosphate buffer solution. Oral dosing began at approximately 08:45 and 16:45, with subcutaneous dosing at 08:45 only. […] Plasma glucose and insulin data from the OGTTs were analyzed by robust regression with treatment as a factor and bleeding order and day 1 body weight as covariates. […]

[4] = target: T1, PKNB(M.tuberculosis) (Mycobacterium tuberculosis, UniProt P9WI81); test: KINOMEscan; type: binding
T1 construct: purchased DiscoverX (Eurofins) KINOMEscan scanMAX; first lines in-house DSF / ADP-Glo
T1 sequence (P9WI81 whole entry): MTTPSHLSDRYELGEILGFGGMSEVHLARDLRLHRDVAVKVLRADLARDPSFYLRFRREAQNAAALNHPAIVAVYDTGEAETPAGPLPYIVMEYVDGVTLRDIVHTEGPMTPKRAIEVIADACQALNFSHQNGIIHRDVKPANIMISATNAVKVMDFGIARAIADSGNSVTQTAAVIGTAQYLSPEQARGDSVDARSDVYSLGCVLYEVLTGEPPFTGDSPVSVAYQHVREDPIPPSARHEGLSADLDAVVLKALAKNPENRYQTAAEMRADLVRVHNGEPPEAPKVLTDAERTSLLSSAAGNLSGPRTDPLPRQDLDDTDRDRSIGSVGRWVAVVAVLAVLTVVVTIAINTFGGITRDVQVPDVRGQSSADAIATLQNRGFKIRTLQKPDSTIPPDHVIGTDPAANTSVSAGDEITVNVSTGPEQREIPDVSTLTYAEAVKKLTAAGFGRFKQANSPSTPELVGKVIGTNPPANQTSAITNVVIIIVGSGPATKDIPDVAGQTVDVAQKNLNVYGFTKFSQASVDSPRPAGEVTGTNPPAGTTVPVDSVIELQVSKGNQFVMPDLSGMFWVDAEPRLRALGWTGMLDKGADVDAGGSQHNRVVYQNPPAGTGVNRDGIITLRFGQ

[5] = Microsome metabolism (MICs)
[6] = Microsome metabolism (MICs); remark: listed apart in the source
[7] = Microsome metabolism (MICs); remark: listed apart in the source
[8] = target: T2, SYK (Homo sapiens, UniProt P43405); conditions: supplement CSV
[9] = target: CAMK1G (Homo sapiens, UniProt Q96NX5); conditions: supplement CSV
Chain of CAMK1G (Q96NX5 whole entry): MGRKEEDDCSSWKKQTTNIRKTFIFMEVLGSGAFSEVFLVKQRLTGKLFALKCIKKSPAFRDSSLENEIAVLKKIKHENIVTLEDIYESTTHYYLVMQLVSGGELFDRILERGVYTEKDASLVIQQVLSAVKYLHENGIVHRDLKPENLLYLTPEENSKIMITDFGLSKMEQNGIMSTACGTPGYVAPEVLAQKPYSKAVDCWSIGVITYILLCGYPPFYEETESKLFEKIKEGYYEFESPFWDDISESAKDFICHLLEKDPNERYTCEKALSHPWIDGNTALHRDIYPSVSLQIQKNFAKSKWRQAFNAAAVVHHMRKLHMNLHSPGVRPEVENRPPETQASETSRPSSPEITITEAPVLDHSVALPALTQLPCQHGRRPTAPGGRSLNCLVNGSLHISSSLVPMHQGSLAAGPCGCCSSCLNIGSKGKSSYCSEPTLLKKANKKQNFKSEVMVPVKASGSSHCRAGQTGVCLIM

[10] = target: CAMK2A (Homo sapiens, UniProt Q9UQM7); conditions: supplement CSV
Chain of CAMK2A (Q9UQM7 whole entry): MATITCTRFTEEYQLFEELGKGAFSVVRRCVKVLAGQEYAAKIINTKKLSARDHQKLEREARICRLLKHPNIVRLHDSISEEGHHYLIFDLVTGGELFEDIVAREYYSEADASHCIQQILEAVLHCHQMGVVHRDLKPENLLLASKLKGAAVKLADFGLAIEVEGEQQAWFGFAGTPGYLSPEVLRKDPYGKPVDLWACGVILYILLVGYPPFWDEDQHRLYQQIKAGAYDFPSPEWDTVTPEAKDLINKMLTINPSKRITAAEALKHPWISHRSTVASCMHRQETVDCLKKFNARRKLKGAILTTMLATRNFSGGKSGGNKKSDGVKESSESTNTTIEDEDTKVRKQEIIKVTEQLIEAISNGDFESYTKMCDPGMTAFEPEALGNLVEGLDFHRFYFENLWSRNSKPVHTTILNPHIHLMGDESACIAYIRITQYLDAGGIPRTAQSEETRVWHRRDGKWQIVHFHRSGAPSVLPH

[11] = target: T2, SYK; test: biochemical; conditions: read-out: Tm shift SYK
[12] = Hepatocyte metabolism (Heps); type: in vitro ADME
[13] = system: NGS mice; test: Tolerability study in NGS mice; type: in vivo; conditions: 40 mg/kg once daily for 21 days, 50:45:5 PEG400/water/ethanol
[14] = target: PAK4 (Homo sapiens, UniProt O96013); conditions: supplement CSV
Chain of PAK4 (O96013 whole entry): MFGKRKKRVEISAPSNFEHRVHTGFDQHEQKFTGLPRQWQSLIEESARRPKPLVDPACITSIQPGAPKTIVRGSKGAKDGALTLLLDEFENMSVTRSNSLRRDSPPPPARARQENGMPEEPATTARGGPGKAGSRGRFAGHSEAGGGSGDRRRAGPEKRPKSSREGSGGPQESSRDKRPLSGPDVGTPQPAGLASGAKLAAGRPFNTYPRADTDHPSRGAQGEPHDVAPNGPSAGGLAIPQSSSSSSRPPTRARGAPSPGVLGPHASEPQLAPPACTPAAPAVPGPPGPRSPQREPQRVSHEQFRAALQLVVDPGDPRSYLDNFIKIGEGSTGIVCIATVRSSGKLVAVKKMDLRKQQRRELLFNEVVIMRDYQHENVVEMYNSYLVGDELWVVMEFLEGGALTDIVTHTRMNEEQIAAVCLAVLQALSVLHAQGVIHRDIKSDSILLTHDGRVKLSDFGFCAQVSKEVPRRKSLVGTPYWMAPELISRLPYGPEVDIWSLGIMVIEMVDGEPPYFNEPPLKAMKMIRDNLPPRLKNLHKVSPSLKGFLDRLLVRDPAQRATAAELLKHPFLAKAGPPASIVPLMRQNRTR

[15] = in vivo; conditions: male, Crl:CD Sprague-Dawley, rat, iv, 2 mg/kg
[16] = in vitro; conditions: mouse, plasma
[17] = in vitro; conditions: rat, plasma
[18] = in vitro; conditions: human, plasma

Compound	S-Score(35) [1]	Interactions Mapped ([1]; 468 Assays Tested)	glucose control and insulin sensitivity in OGTT [2]	baseline glucose and insulin levels, peak glucose following OGTT [3]	glucose AUCB2 [3]	remaining binding at 1 µM [4] [%]	mouse MICs [5] [μL·min^–1·mg^–1]	rat MICs [6] [μL·min^–1·mg^–1]	human MICs [7] [μL·min^–1·mg^–1]	SYK Tm [8]	CAMK1G Tm [9]	CAMK2A Tm [10]	ΔTm at 10 µM [11] [°C]	human Heps [12] [μL·min^–1 per 10^6 cells]	tolerability [13]	PAK4 Tm [14]	clearance [15] [mL/min/kg]	fraction unbound [16]	fraction unbound [17]	fraction unbound [18]
CC(C)(C#N)c1cc(Nc2nc(N3CCC[C@H](N)C3)ncc2C(N)=O)cc(C(C)(C)C#N)c1 [Compound 18, (S)-2-(3-Aminopiperidin-1-yl)-4-((3,5-bis(2-cyanopropan-2-yl)phenyl)amino)pyrimidine-5-carboxamide Hydrochloride]	0.03	23	improved glucose control and increased insulin sensitivity	reduced baseline glucose and insulin levels, as well as reduced peak glucose levels	no effect	84	15	< 1	13	–	–	–	–	–	–	–	–	–	–	–
NC(=O)c1cnc(N2CCC[C@@H](N)C2)nc1Nc1cccc(C(F)(F)F)c1 [Compound 7, (R)-2-(3-Aminopiperidin-1-yl)-4-((3-(trifluoromethyl)phenyl)amino)pyrimidine-5-carboxamide Hydrochloride]	–	–	–	–	–	–	–	–	–	6.82 0C	6.58 0C	1.17 0C	6.82	–	–	–	–	–	–	–
CC(C)c1cc(Nc2nc(N3CCC[C@H](N)C3)ncc2C(N)=O)cc(C(C)C)n1 [Compound 19, (S)-2-(3-Aminopiperidin-1-yl)-4-((2,6-diisopropylpyridin-4-yl)amino)pyrimidine-5-carboxamide]	0.03	–	–	–	–	83	6	3	7	–	16.35 0C	–	–	19	no observable adverse effects	3.31 0C	36.5	0.06	0.08	0.11
